Where a name gives a salt, the structure may show the parent alone.
Tests used:
[1] = system: experimental myopia in chickens; details: intravitreal administration; cited from earlier work
[2] = system: experimental myopia in guinea pigs; details: systemic administration; cited from earlier work
[3] = system: chicks with form deprivation myopia; test: Form deprivation myopia chick model, scleral proteoglycan synthesis (35SO4 incorporation into glycosaminoglycans); format: in vivo; details: high (2.25 mM) and low (0.75 mM) dose, 20 ul intravitreal daily for seven days; measured four hours after the final dose
Description: Three compounds (quinpirole, CAP4719, and L-DOPA) were tested in chicks for their effects on scleral proteoglycan synthesis, as a measure of scleral growth, axial elongation and myopia. CAP4719 has the following structure: […]
Form deprivation myopia is induced in the right eyes of 4-5 days old chicks by the application of translucent occluders. […] At the end of the treatment period, chicks are sacrificed, their sclera labelled in organ culture with 35SO4, and scleral proteoglycan synthesis measured by CPC-precipitation of newly synthesized glycosaminoglycans. Radioactivity is measured using scintillation counting, and the amount of radioactivity compared (as CPM) between right and left eyes of all groups of animals by paired t-tests and between different groups using ANOVA. […]
The right eyes were goggled (myopic) and injected with either the high dose, low dose, or vehicle of the CAP4719 compound. Proteoglycan synthesis was measured as the amount of 35SO4 (cpm) incorporated into glycosaminoglycans four hours after the final dose. […]

[4] = system: experimental myopia in rabbits; details: intravitreal administration of exogenous dopamine; cited from earlier work
COMT = details: known COMT inhibitors, cited from earlier work
bovine lens extracts = test: UVC/H2O2-induced aggregation of bovine lens extracts; format: biochemical; details: 7 minutes exposure
Text: FIG. 2 represents data relating to UVC/H2O2-induced aggregation of bovine lens extracts, as described in Example 4.

Question: Which “Development of experimental myopia” value [1] does the source give for N[C@@H](Cc1ccc(O)c(O)c1)C(=O)O [L-Dopa] here?
Answer: Its value is “inhibit the development of experimental myopia”.

Question: What about the “Development of experimental myopia” value [2] of the same molecule?
Answer: The value was “inhibit the development of experimental myopia”.

Question: With Cc1ccc(C(=O)c2cc(OC(=O)CCCP(=O)([O-])[O-])c(O)c([N+](=O)[O-])c2)cc1.[Na+].[Na+] [CAP4719] as the molecule, how does the “Block of the increase in proteoglycan synthesis in the goggled (myopic) right eye” value [3] read?
Answer: The value was “did not completely block the increase in proteoglycan synthesis”.

Question: What about the “Percentage increase in proteoglycan synthesis over the left (control) eye, compared with the vehicle” value [3] of the same molecule?
Answer: The value was “appears to be lower”.

Question: With NCCc1ccc(O)c(O)c1 [dopamine] as the molecule, how does the “Development of experimental myopia” value [4] read?
Answer: Its value is “inhibit the development of experimental myopia”.

Question: With O=C(CCN1CCN(c2cccc(C(F)(F)F)c2)CC1)c1cc(O)c(O)c([N+](=O)[O-])c1 [BIA 3-335, 1-(3,4-Dihydroxy-5-nitrophenyl)-3-{4-[3-(trifluoromethyl)phenyl]-1-piperazinyl}-1-propanone dihydrochloride] as the molecule, how does the Ki (COMT) read?
Answer: Its Ki is 6 nM.

Question: With O=C(NCCCNC(=O)c1ccc(O)c(O)c1)c1ccc(O)c(O)c1 [Bifunctional inhibitor, N,N′-(propane-1,3-diyl)bis(3,4-dihydroxybenzamide)] as the molecule, how does the IC50 (COMT; read-out: IC50 (concentration of the inhibitor that affords a 50% inhibition in the activity of the enzyme, COMT)) read?
Answer: Its IC50 is 300 nM.

Question: Which Ki (COMT) does the source give for Cc1c(Cl)c(C)[n+]([O-])c(Cl)c1-c1noc(-c2cc(O)c(O)c([N+](=O)[O-])c2)n1 [Opicapone] here?
Answer: Its Ki is 1 nM.

Question: Which “Prevention of UVC/H2O2-induced aggregation of bovine lens extracts” value (bovine lens extracts) does the source give for Cc1ccc(C(=O)c2cc(O)c(O)c([N+](=O)[O-])c2)cc1 [CAP1160] here?
Answer: The value was “prevents UVC/H2O2-induced aggregation of bovine lens extracts”.

Reference: patent publication US20240000812A1, “PHARMACOLOGICAL AGENTS FOR TREATING CONDITIONS OF THE EYE” (PLEX PHARMACEUTICALS, INC., priority 2020, published 2024)
